# What was measured:
# Conditions in all cases: incubation time: 72 h
# MCF-10A [1] = experiment: normalised response (% of control), CellTox Green; higher = less cell death (100 = DMSO, 0 = benzethonium chloride kill control)
# Method in brief: (§1)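 Each entry is the normalised signal at a single concentration within a series. The series comprised 5 concentrations in 10-fold steps over a compound-specific 10,000-fold range, placed in 384-well plates into which breast cancer cell lines were seeded as 20 µl suspension and incubated 72 h. CellTox Green (485/520 nm) fluorescence and then CellTiter-Glo luminescence were read, with signals normalised per plate to 0.1 % DMSO (100) and a positive kill control (0).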
# CAL-85-1 [2] = experiment: as above
# Method in brief: as §1
# MDA-MB-468 [3] = experiment: as above
# Method in brief: as §1
# HCC1937 [4] = experiment: as above
# Method in brief: as §1
# BT-549 [5] = experiment: as above
# Method in brief: as §1
# MDA-MB-436 [6] = experiment: as above
# Method in brief: as §1
# HCC1599 [7] = experiment: as above
# Method in brief: as §1
# CAL-120 [8] = experiment: as above
# Method in brief: as §1
# MDA-MB-231 [9] = experiment: as above
# Method in brief: as §1
# Hs578T [10] = experiment: as above
# Method in brief: as §1
# BT-474 [11] = experiment: as above
# Method in brief: as §1
# MDA-MB-453 [12] = experiment: as above
# Method in brief: as §1
# HCC1143 [13] = experiment: as above
# Method in brief: as §1
# HDQ-P1 [14] = experiment: as above
# Method in brief: as §1
# MFM-223 [15] = experiment: as above
# Method in brief: as §1
# DU-4475 [16] = experiment: as above
# Method in brief: as §1
# CAL-148 [17] = experiment: as above
# Method in brief: as §1
# CAL-51 [18] = experiment: as above
# Method in brief: as §1
# MCF-10A [19] = experiment: normalised response (% of control), CellTiter-Glo; higher = more viable cells (100 = DMSO, 0 = benzethonium chloride kill control)
# Procedure: (§2)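 DSRT, 72 h incubation, CellTox Green / CellTiter-Glo readout. Signal is normalised to DMSO and benzethonium chloride controls. Value is the normalised response at dose 3.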
# CAL-85-1 [20] = experiment: as above
# Procedure: as §2
# MDA-MB-468 [21] = experiment: as above
# Procedure: as §2
# HCC1937 [22] = experiment: as above
# Procedure: as §2
# BT-549 [23] = experiment: as above
# Procedure: as §2
# MDA-MB-436 [24] = experiment: as above
# Procedure: as §2
# HCC1599 [25] = experiment: as above
# Procedure: as §2
# CAL-120 [26] = experiment: as above
# Procedure: as §2
# MDA-MB-231 [27] = experiment: as above
# Procedure: as §2
# SK-BR-3 = experiment: as above
# Procedure: as §2
# Hs578T [28] = experiment: as above
# Procedure: as §2
# BT-474 [29] = experiment: as above
# Procedure: as §2
# MDA-MB-453 [30] = experiment: as above
# Procedure: as §2
# HCC1143 [31] = experiment: as above
# Procedure: as §2
# HDQ-P1 [32] = experiment: as above
# Procedure: as §2
# MFM-223 [33] = experiment: as above
# Procedure: as §2
# DU-4475 [34] = experiment: as above
# Procedure: as §2
# CAL-148 [35] = experiment: as above
# Procedure: as §2
# CAL-51 [36] = experiment: as above
# Procedure: as §2
smiles,measurement,setting,value
C=CCN(/C=C1/C(=O)O[C@H](COC)[C@@]2(C)C1=C(O)C(=O)C1=C2[C@H](OC(C)=O)C[C@]2(C)C(=O)CC[C@@H]12)CC=C [Sonolisib] (100 nM),normalised response,MCF-10A [1],72.8%
same,normalised response,CAL-85-1 [2],106%
same,normalised response,MDA-MB-468 [3],112%
same,normalised response,HCC1937 [4],121%
same,normalised response,BT-549 [5],108%
same,normalised response,MDA-MB-436 [6],107%
same,normalised response,HCC1599 [7],115%
same,normalised response,CAL-120 [8],101%
same,normalised response,MDA-MB-231 [9],110%
same,normalised response,Hs578T [10],73.7%
same,normalised response,BT-474 [11],96.5%
same,normalised response,MDA-MB-453 [12],106%
same,normalised response,HCC1143 [13],117%
same,normalised response,HDQ-P1 [14],63.5%
same,normalised response,MFM-223 [15],109%
same,normalised response,DU-4475 [16],106%
same,normalised response,CAL-148 [17],98.6%
same,normalised response,CAL-51 [18],102%
same,normalised response,MCF-10A [19],108%
same,normalised response,CAL-85-1 [20],109%
same,normalised response,MDA-MB-468 [21],105%
same,normalised response,HCC1937 [22],99.7%
same,normalised response,BT-549 [23],106%
same,normalised response,MDA-MB-436 [24],106%
same,normalised response,HCC1599 [25],104%
same,normalised response,CAL-120 [26],109%
same,normalised response,MDA-MB-231 [27],107%
same,normalised response,SK-BR-3,107%
same,normalised response,Hs578T [28],94.7%
same,normalised response,BT-474 [29],106%
same,normalised response,MDA-MB-453 [30],102%
same,normalised response,HCC1143 [31],105%
same,normalised response,HDQ-P1 [32],102%
same,normalised response,MFM-223 [33],107%
same,normalised response,DU-4475 [34],105%
same,normalised response,CAL-148 [35],116%
same,normalised response,CAL-51 [36],85.2%
CN[C@@H](C)C(=O)N[C@H]1CN(C(=O)CC(C)C)CC[C@H]2CC[C@@H](C(=O)NC(c3ccccc3)c3ccccc3)N2C1=O [AT-406] (100 nM),normalised response,MCF-10A [1],101%
same,normalised response,MDA-MB-468 [3],114%
same,normalised response,HCC1937 [4],95.2%
same,normalised response,BT-549 [5],68.8%
same,normalised response,MDA-MB-436 [6],76.2%
same,normalised response,HCC1599 [7],101%
same,normalised response,CAL-120 [8],83%
same,normalised response,MDA-MB-231 [9],35.2%
same,normalised response,Hs578T [10],97.2%
same,normalised response,BT-474 [11],94.9%
same,normalised response,MDA-MB-453 [12],102%
same,normalised response,HCC1143 [13],70.4%
same,normalised response,HDQ-P1 [14],86.4%
same,normalised response,MFM-223 [15],104%
same,normalised response,DU-4475 [16],104%
same,normalised response,CAL-51 [18],96.3%
same,normalised response,MCF-10A [19],111%
same,normalised response,CAL-85-1 [20],86.6%
same,normalised response,MDA-MB-468 [21],103%
same,normalised response,HCC1937 [22],103%
same,normalised response,BT-549 [23],47.4%
same,normalised response,MDA-MB-436 [24],105%
same,normalised response,HCC1599 [25],79.1%
same,normalised response,CAL-120 [26],92.5%
same,normalised response,MDA-MB-231 [27],63.9%
same,normalised response,SK-BR-3,99.9%
same,normalised response,Hs578T [28],100%
same,normalised response,BT-474 [29],54%
same,normalised response,MDA-MB-453 [30],89.8%
same,normalised response,HCC1143 [31],103%
same,normalised response,HDQ-P1 [32],95.9%
same,normalised response,MFM-223 [33],102%
same,normalised response,DU-4475 [34],102%
same,normalised response,CAL-148 [35],102%
same,normalised response,CAL-51 [36],109%
CC[C@H](CO)Nc1nc(NCc2ccccc2)c2ncn(C(C)C)c2n1 [Seliciclib] (100 nM),normalised response,MCF-10A [1],104%
same,normalised response,CAL-85-1 [2],92.4%
same,normalised response,MDA-MB-468 [3],102%
same,normalised response,HCC1937 [4],118%
same,normalised response,BT-549 [5],102%
same,normalised response,MDA-MB-436 [6],61.4%
same,normalised response,HCC1599 [7],109%
same,normalised response,CAL-120 [8],98.4%
same,normalised response,MDA-MB-231 [9],96%
same,normalised response,Hs578T [10],100%
same,normalised response,BT-474 [11],97.1%
same,normalised response,MDA-MB-453 [12],104%
same,normalised response,HCC1143 [13],82.7%
same,normalised response,HDQ-P1 [14],105%
same,normalised response,MFM-223 [15],107%
same,normalised response,DU-4475 [16],101%
same,normalised response,CAL-148 [17],108%
same,normalised response,CAL-51 [18],105%
same,normalised response,MCF-10A [19],97.1%
same,normalised response,CAL-85-1 [20],98.6%
same,normalised response,MDA-MB-468 [21],102%
same,normalised response,HCC1937 [22],94.2%
same,normalised response,BT-549 [23],102%
same,normalised response,MDA-MB-436 [24],105%
same,normalised response,HCC1599 [25],110%
same,normalised response,CAL-120 [26],97.6%
same,normalised response,MDA-MB-231 [27],99.8%
same,normalised response,SK-BR-3,106%
same,normalised response,Hs578T [28],104%
same,normalised response,BT-474 [29],105%
same,normalised response,MDA-MB-453 [30],114%
same,normalised response,HCC1143 [31],106%
same,normalised response,HDQ-P1 [32],101%
same,normalised response,MFM-223 [33],107%
same,normalised response,DU-4475 [34],104%
same,normalised response,CAL-148 [35],112%
same,normalised response,CAL-51 [36],101%
Cc1cc(Nc2nc(N[C@@H](C)c3ncc(F)cn3)ncc2Cl)[nH]n1 [AZD1480] (10 nM),normalised response,CAL-85-1 [2],108%
same,normalised response,MDA-MB-468 [3],136%
same,normalised response,HCC1937 [4],92.2%
same,normalised response,BT-549 [5],65.3%
same,normalised response,MDA-MB-436 [6],73.2%
same,normalised response,HCC1599 [7],99.4%
same,normalised response,CAL-120 [8],95.6%
same,normalised response,MDA-MB-231 [9],95.6%
same,normalised response,Hs578T [10],109%
same,normalised response,BT-474 [11],98.2%
same,normalised response,MDA-MB-453 [12],98.8%
same,normalised response,HCC1143 [13],106%
same,normalised response,HDQ-P1 [14],97.8%
same,normalised response,MFM-223 [15],96.4%
same,normalised response,DU-4475 [16],96.6%
same,normalised response,CAL-148 [17],66.3%
same,normalised response,CAL-51 [18],111%
same,normalised response,MCF-10A [19],92.3%
same,normalised response,CAL-85-1 [20],103%
same,normalised response,MDA-MB-468 [21],104%
same,normalised response,HCC1937 [22],98.9%
same,normalised response,BT-549 [23],102%
same,normalised response,MDA-MB-436 [24],106%
same,normalised response,HCC1599 [25],107%
same,normalised response,CAL-120 [26],98.4%
same,normalised response,MDA-MB-231 [27],96.1%
same,normalised response,SK-BR-3,97%
same,normalised response,Hs578T [28],92.2%
same,normalised response,BT-474 [29],99.9%
same,normalised response,MDA-MB-453 [30],88.9%
same,normalised response,HCC1143 [31],103%
same,normalised response,HDQ-P1 [32],97.1%
same,normalised response,MFM-223 [33],96%
same,normalised response,DU-4475 [34],93.9%
same,normalised response,CAL-148 [35],93.5%
same,normalised response,CAL-51 [36],114%
CNC(=O)c1ccccc1Sc1ccc2c(/C=C/c3ccccn3)n[nH]c2c1 [Axitinib] (100 nM),normalised response,MCF-10A [1],98.7%
same,normalised response,CAL-85-1 [2],104%
same,normalised response,MDA-MB-468 [3],132%
same,normalised response,HCC1937 [4],102%
same,normalised response,BT-549 [5],113%
same,normalised response,HCC1599 [7],113%
same,normalised response,CAL-120 [8],99.2%
same,normalised response,MDA-MB-231 [9],105%
same,normalised response,Hs578T [10],111%
same,normalised response,BT-474 [11],102%
same,normalised response,MDA-MB-453 [12],110%
same,normalised response,HCC1143 [13],105%
same,normalised response,HDQ-P1 [14],116%
same,normalised response,MFM-223 [15],96%
same,normalised response,DU-4475 [16],104%
same,normalised response,CAL-148 [17],108%
same,normalised response,CAL-51 [18],107%
same,normalised response,MCF-10A [19],100%
same,normalised response,CAL-85-1 [20],109%
same,normalised response,MDA-MB-468 [21],93.8%
same,normalised response,HCC1937 [22],97.8%
same,normalised response,BT-549 [23],107%
same,normalised response,MDA-MB-436 [24],102%
same,normalised response,HCC1599 [25],101%
same,normalised response,CAL-120 [26],104%
same,normalised response,MDA-MB-231 [27],111%
same,normalised response,SK-BR-3,103%
same,normalised response,Hs578T [28],98.5%
same,normalised response,BT-474 [29],104%
same,normalised response,MDA-MB-453 [30],110%
same,normalised response,HCC1143 [31],102%
same,normalised response,HDQ-P1 [32],102%
same,normalised response,MFM-223 [33],90.5%
same,normalised response,DU-4475 [34],111%
same,normalised response,CAL-148 [35],112%
same,normalised response,CAL-51 [36],81.6%

# — the supplement of paper PMC4862054
